In patent US12365687B2 (Hoffmann-La Roche Inc., priority 2021, dated 2025):

Key:
[1] = molecular target: human GABAA α5β2γ1 receptor (Homo sapiens (Human), UniProt P31644+Q8N1C3); assay: Radioligand binding assay for γ1-containing GABAA subtypes, [3H]RO7239181 competition (α5β2γ1)
Protocol: (§1) The affinity of compounds at GABAA γ1 subunit-containing receptors was measured by competition for [^3H]RO7239181 (67.3 Ci/mmol; Roche) binding to membranes from HEK293F cells (ThermoFisher R79007) expressing human (transiently transfected) receptors of composition α5β2γ1, α2β2γ1, α1β2γ1.
(§2) Harvested pellets from HEK293F cells expressing the different GABAA receptor subtypes were resuspended in Mannitol Buffer pH 7.2-7.4 (Mannitol 0.29 M, Triethylamine 10 mM, Acetic acid 10 mM, EDTA 1 mM plus protease inhibitors (20 tablets Complete, Roche Diagnostics Cat. No. 05 056 489 001 per liter)), washed two times and then resuspended at 1:10 to 1:15 dilution in the same buffer. Cell disruption was performed by stirring the suspension in a Parr vessel #4637 at 435 psi for 15 minutes, and then the suspensions were centrifuged at 1000×g for 15 minutes at 4° C. (Beckman Avanti J-HC; rotor JS-4.2). The supernatant (S1) was transferred in a 2 l Schott flask and the pellet (P1) was resuspended with Mannitol Buffer up to 175 ml. The resuspended pellet was transferred into a 250 ml Corning centrifugal beaker and centrifuged at 1500×g for 10 minutes at 4° C. (Beckman Avanti J-HC; rotor JS-4.2). The supernatant (S1) was then transferred in the 2 l Schott flask and the pellet was discarded. The supernatants (S1) were centrifuged in 500 ml Beckman polypropylene centrifugal beaker at 15′000×g for 30 minutes at 4° C. (Beckman Avanti J-20 XP; rotor JLA-10.500). The pellet (P2) was resuspended with Mannitol Buffer 1:1 and frozen at −80° C. The supernatant (S2) was centrifuged in 100 ml Beckman polypropylene centrifugal tubes at 48000×g for 50 minutes at 4° C. (Beckman Avanti J-20 XP; rotor JA-18). The supernatant (S3) was discarded and the pellet (P3) was resuspended with 1:1 Mannitol Buffer. The P2 and P3 protein concentration was determined with the BIORAD Standard assay method with bovine serum albumin as standard and measured on the NANO-Drop 1000. The membrane suspension was aliquots (500 μl per tube) and stored at −80° C. until required.
(§3) Membrane homogenates were resuspended and polytronised (Polytron PT1200E Kinematica AG) in Potassium Phosphate 10 mM, KCl 100 mM binding buffer at pH 7.4 to a final assay concentration determined with a previous experiment.
(§4) Assays were incubated to equilibrium for 1 hour at 4° C. and then, membranes were filtered onto unifilter (96-well white microplate with bonded GF/C filters preincubated 20-50 minutes in 0.3% Polyethylenimine) with a Filtermate 196 harvester (Packard BioScience) and washed 4 times with cold Potassium Phosphate 10 mM pH 7.4, KCl 100 mM binding buffer. After anhydrousing, filter-retained radioactivity was detected by liquid scintillation counting. Ki values were calculated using Excel-Fit (Microsoft) and are the means of two determinations.

[2] = molecular target: human GABAA α1β3γ2 receptor (Homo sapiens (Human), UniProt P14867+P18507); assay: Radioligand binding assay for γ2-containing GABAA subtypes, [3H]Flumazenil competition (α1β3γ2); details: for γ2/γ1 Selectivity Ratio: Ki α1β3γ2 (nM)/Ki α2β2γ1 (nM); for LogSel: Log[Ki α1β3γ2 (nM)/Ki α2β2γ1 (nM)]
Protocol: The affinity of compounds at GABAA γ2 subunit-containing receptors was measured by competition for [^3H]Flumazenil (81.1 Ci/mmol; Roche) binding to HEK293F cells expressing human (transiently transfected) receptors of composition α1β3γ2.
Harvested pellets from HEK293F cells expressing the different GABAA γ2 receptor subtypes were resuspended in Mannitol Buffer pH 7.2-7.4 and processed as described above for the cells expressing the GABAA γ1 subunit-containing receptors.
Assays were incubated to equilibrium for 1 hour at 4° C. and harvested onto GF/C uni-filters (Packard) by filtration using a Packard harvester and washing with ice-cold wash buffer (50 mM Tris; pH 7.5). After anhydrousing, filter-retained radioactivity was detected by liquid scintillation counting. Ki values were calculated using Excel-Fit (Microsoft) and are the means of two determinations.

[3] = molecular target: α2β2γ1 GABAA receptor subtype (Homo sapiens (Human), UniProt P47869+Q8N1C3); assay: Two-electrode voltage clamp electrophysiology in Xenopus oocytes expressing GABAA receptors (modulation of GABA EC20 current); assay type: cell-based; details: for Efficacy (GABA)%: % modulation of GABA EC20 = 100*(Fold increase-1), α2β2γ1 oocytes, compound at approx. 30-fold Ki; for Fold increase h-GABA-A α2β2γ1 oocyte @ 30-fold Ki: Xenopus oocytes expressing α2β2γ1, compound at approx. 30-fold its Ki α2β2γ1, GABA EC20 current
Protocol: Xenopus laevis oocytes at maturation stages V-VI were used for the expression of cloned mRNA encoding GABAA receptor subunits. Oocytes ready for RNA micro-injection were bought from Ecocyte, Castrop-Rauxel, Germany and stored in modified Barth's medium (composition in mM: NaCl 88, KCl 1, NaHCO3 2.4, HEPES 10, MgSO4 0.82, CaNO3 0.33, CaCl2 0.33, pH=7.5) at 20° C. until the experiment.
Oocytes were plated in 96-well plates for microinjection using the Roboinject automated instrument (MultiChannelSystems, Reutlingen, Germany). Approximately 50 nL of an aqueous solution containing the RNA transcripts for the subunits of the desired GABAA receptor subtype was injected into each oocyte. […] Oocytes were kept in modified Barth's medium (composition in mM: NaCl 88, KCl 1, NaHCO3 […], HEPES 10, MgSO4 0.82, CaNO3 0.33, CaCl2 0.33, pH=7.5) at 20° C. until the experiment.
Electrophysiological experiments were performed using the Roboocyte instrument (MultiChannelSystems, Reutlingen, Germany) on days 3 to 5 after the micro-injection of mRNA. During the experiment the oocytes were constantly superfused by a solution containing (in mM) NaCl 90, KCl 1, HEPES 5, MgCl2 1, CaCl2 1 (pH 7.4). Oocytes were impaled by two glass microelectrodes (resistance: 0.5-0.8 MΩ) which were filled with a solution containing KCl 1M+K-acetate 1.5 M and voltage-clamped to −80 mV. The recordings were performed at room temperature using the Roboocyte two-electrode voltage clamp system (Multichannelsystem). After an initial equilibration period of 1.5 min GABA was added for 1.5 min at a concentration evoking approximately 20% of a maximal current response (EC20). After another rest interval of 2.5 min GABA was again added evoking a response of similar amplitude and shape. […] Current traces were recorded at a digitization rate of 10 Hz during and shortly before and after the GABA application.
Each compound and concentration was tested on at least 3 oocytes. Different oocytes were used for different compound concentrations.
For the analysis, the digitized current traces of the first and second GABA response were superimposed and, if necessary, rescaled to equal maximal amplitudes. The ratio between the two responses during the time interval of test compound application was calculated point by point. The extremum of the resulting “ratio trace” was taken as the efficacy (“Fold increase”) of the compound expressed as “% modulation of GABA EC20” (100*(Fold increase-1)).

[4] = molecular target: human GABAA α2β2γ1 receptor (Homo sapiens (Human), UniProt P47869+Q8N1C3); assay: Radioligand binding assay for γ1-containing GABAA subtypes, [3H]RO7239181 competition (α2β2γ1)
Protocol: as §1, §2, §3, §4

[5] = Ki h-GABAA α2β2γ1, [3H]RO7239181 competition binding, human GABAA α2β2γ1
[6] = Ki h-GABAA α2β2γ1, displacement of [3H]RO7239181, membranes of HEK293F cells expressing human receptors, means of two determinations

Row | SMILES | Ki [1] [µM] | Ki [2] [µM] | γ2/γ1 Selectivity Ratio [2] | LogSel [2] | Efficacy (GABA)% [3] [%] | Fold increase h-GABA-A α2β2γ1 oocyte @ 30-fold Ki [3] | Ki [4, 5] [µM] | Ki [4, 6] [µM]
1 | COCc1nc2n(n1)-c1ccc(Cl)c(Cl)c1C(c1c(F)cccc1F)=N[C@H]2C [Example 27, (4S)-7,8-dichloro-6-(2,6-difluorophenyl)-2-(methoxymethyl)-4-methyl-4H-[1,2,4]triazolo[1,5-a][1,4]benzodiazepine] | 0.00108 | 0.707 | 61.8 | 1.79 | 69 | 1.69 | 0.0114 | 0.0114
2 | C[C@@H]1N=C(c2c(F)cccc2F)c2c(ccc(C(F)(F)F)c2Cl)-n2nc(NC(=O)N3C4COCC3C4)nc21 (single isomer, unassigned) [Example 130] | 0.0069 | 4.19 | 114.5 | 2.06 | 116 | 2.16 | 0.0366 | 0.0366
3 | CO[C@@H]1CCN(C(=O)c2nc3n(n2)-c2ccc(Cl)c(Cl)c2C(c2c(F)cccc2F)=N[C@H]3C)C1 [Example 46, [(4S)-7,8-dichloro-6-(2,6-difluorophenyl)-4-methyl-4H-[1,2,4]triazolo[1,5-a][1,4]benzodiazepin-2-yl]-[(3R)-3-methoxypyrrolidin-1-yl]methanone] | 0.00214 | 0.867 | 146.6 | 2.17 | 73 | 1.73 | 0.0059 | 0.00591
4 | C[C@@H]1N=C(c2ncccc2F)c2c(ccc(C(F)(F)F)c2Cl)-n2nc(C(=O)NCCO)nc21 [Example 138, (4S)-7-chloro-6-(3-fluoro-2-pyridyl)-N-(2-hydroxyethyl)-4-methyl-8-(trifluoromethyl)-4H-[1,2,4]triazolo[1,5-a][1,4]benzodiazepine-2-carboxamide] | 0.0171 | > 30 | 334.8 | 2.52 | 204 | 3.04 | 0.0896 | 0.0896
5 | C[C@@H]1N=C(c2ncccc2F)c2c(ccc(C(F)(F)F)c2Cl)-n2cc(C(=O)N3CC(F)C3)nc21 [Example 161, (3-fluoroazetidin-1-yl)-[(4S)-7-chloro-6-(3-fluoro-2-pyridyl)-4-methyl-8-(trifluoromethyl)-4H-imidazo[1,2-a][1,4]benzodiazepin-2-yl]methanone] | 0.0213 | > 30 | 412.4 | 2.62 | 165 | 2.65 | 0.0728 | 0.0727
6 | C[C@@H]1N=C(c2c(F)cccc2F)c2c(ccc(Cl)c2Cl)-n2nc(S(N)(=O)=O)nc21 [Example 69, (4S)-7,8-dichloro-6-(2,6-difluorophenyl)-4-methyl-4H-[1,2,4]triazolo[1,5-a][1,4]benzodiazepine-2-sulfonamide] | 0.00077 | 1.15 | 60.1 | 1.78 | 97 | 1.97 | 0.0192 | 0.0192
7 | C[C@@H]1N=C(c2ncccc2F)c2c(ccc(C(F)(F)F)c2Cl)-n2nc(NC(=O)NC3CC3)nc21 [Example 143, 1-[(4S)-7-chloro-6-(3-fluoro-2-pyridyl)-4-methyl-8-(trifluoromethyl)-4H-[1,2,4]triazolo[1,5-a][1,4]benzodiazepin-2-yl]-3-cyclopropyl-urea] | 0.00735 | 13.5 | 296.6 | 2.47 | 110 | 2.10 | 0.0454 | 0.0454
8 | C[C@@H]1N=C(c2ncccc2F)c2c(ccc(C(F)(F)F)c2Cl)-n2nc(C(=O)N3CC(OC(F)F)C3)nc21 [Example 140, [(4S)-7-chloro-6-(3-fluor-2-pyridyl)-4-methyl-8-(trifluoromethyl)-4H-[1,2,4]triazolo[1,5-a][1,4]benzodiazepin-2-yl]-[3-(difluoromethoxy)azetidin-1-yl]methanone] | 0.00663 | > 30 | 1041.0 | 3.02 | 121 | 2.21 | 0.0288 | 0.0288
9 | C[C@@H]1N=C(c2ncccc2F)c2c(ccc(C(F)(F)F)c2Cl)-n2cc(C(=O)NCC3(O)CC3)nc21 [Example 164, (4S)-7-chloro-6-(3-fluoro-2-pyridyl)-N-[(1-hydroxycyclopropyl)methyl]-4-methy-8-(trifluoromethyl)-4H-imidazo[1,2-a][1,4]benzodiazepine-2-carboxamide] | 0.0106 | 8.52 | 253.2 | 2.40 | 177 | 2.77 | 0.0352 | 0.0337
